Consider 1 compound from paper PMC6078311, “Localization and functional characterization of the pathogenesis-related proteins Rbe1p and Rbt4p in Candida albicans” (PLoS ONE, 2018).

One test has as its target T1, Rbt4p (Candida albicans, UniProt Q5AB48).
T1 construct: gene RBT4; codon-optimized His-tagged Rbt4p expressed in Escherichia coli
The test is described as follows: in vitro [3H]-cholesterol radioligand saturation binding with purified protein; competition with unlabeled cholesterol.

Another test addresses T2, Rbe1p (Candida albicans, UniProt Q59ZX3).
T2 construct: gene RBE1; codon-optimized His-tagged Rbe1p expressed in Escherichia coli
The test is described as above.

T2 sequence (Q59ZX3 20-271): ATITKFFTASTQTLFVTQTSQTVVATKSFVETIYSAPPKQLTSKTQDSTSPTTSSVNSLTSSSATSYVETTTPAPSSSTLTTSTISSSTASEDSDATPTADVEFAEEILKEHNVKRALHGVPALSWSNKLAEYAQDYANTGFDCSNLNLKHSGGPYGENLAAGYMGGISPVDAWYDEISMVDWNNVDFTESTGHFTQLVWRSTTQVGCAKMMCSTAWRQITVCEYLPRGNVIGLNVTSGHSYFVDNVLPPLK
T1 sequence (Q5AB48 20-358): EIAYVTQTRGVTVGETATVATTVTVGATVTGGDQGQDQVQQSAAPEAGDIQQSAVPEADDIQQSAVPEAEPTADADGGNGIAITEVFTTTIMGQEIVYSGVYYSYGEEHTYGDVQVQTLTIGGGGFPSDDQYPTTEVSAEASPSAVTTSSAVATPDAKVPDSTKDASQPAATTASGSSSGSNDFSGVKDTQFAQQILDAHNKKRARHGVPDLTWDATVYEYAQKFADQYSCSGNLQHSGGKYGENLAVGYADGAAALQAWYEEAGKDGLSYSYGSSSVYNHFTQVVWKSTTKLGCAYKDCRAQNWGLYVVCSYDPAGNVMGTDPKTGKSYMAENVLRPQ

By Kd is commonly meant a measure of binding affinity in units of concentration. In the case of `CC(C)CCC[C@@H](C)[C@H]1CC[C@H]2[C@@H]3CC=C4C[C@@H](O)CC[C@]4(C)[C@H]3CC[C@]12C` [cholesterol], the Kd was roughly 3.3 µM on Rbt4p and roughly 5.78 µM at Rbe1p.
